Counter-ions that a name gives are not always drawn.
Experiments:
Format in all cases: cell-based
Nav1.5 = target: T1, Nav1.5 (Homo sapiens, UniProt Q14524); assay: hNav1.5 Sodium Channel Assay (peak), Qube APC; conditions: Antagonist mode; HEK-Nav1.5 (Peak); test compound
T1 construct: host or cells: HEK-293
Description: (§1) Where presented, IC50 values were determined by a non-linear, least squares regression analysis.
(§2) Recombinant HEK-293 cells stably transfected with human NavL.5 cDNA, recombinant HEK293 cell line expressing the human Cavl.2 (L-type voltage gated calcium channel, hCavl.2 alC/02a/a281, and recombinant CHO-K1 cells stably transfected with human hERG cDNA were used separately in each of these assays.
(§3) Ion Channels tested were Eurofins Panel Part Number: CPROFullQB2DR Voltage-Gated Sodium: HEK-Nav1.5 (Peak), HEK-Nav1.5 (Late, Antagonist) Voltage-Gated Potassium: HEK-Kv4.3/KChIP2, CHO-hERG, CHO-KCNQ1/minK Voltage-Gated Calcium: HEK-Cav1.2 Inward-Rectifying Voltage-Gated Potassium: HEK-Kir2.1.
(§4) Methods employed in this study have been developed and validated with reliability and reproducibility by Eurofins. Assays were performed under conditions below. […] Peak current is measured during the step to −15 mV. […] Onset and steady state block of hKv4.3 current is measured using a pulse pattern from −80 mV to 40 mV amplitude for a 110 ms duration, and finally a 100 ms ramp (1.2 V/s) to −80 mV. This paradigm is delivered once every 5s to monitor the current amplitude. […] Cavl.2 currents are evoked by a 50 ms pulse to −100 mV followed by a 200 ms pulse to +20 mV before returning to the holding potential of −90 mV. This paradigm is delivered three times every 60s to monitor the current amplitude. [0220] hNav1.5 Late Current Sodium Channel Assay—Qube APC Onset and steady state block of Late Nay1.5 current is measured using a pulse pattern, repeated every 5 sec, consisting of a hyperpolarizing pulse to −120 mV for a 200 ms duration, depolarization to −15 mV amplitude for a 40 ms duration, followed by step to 40 mV for 200 ms and finally a 100 ms ramp (1.2 V/s) to a holding potential of −80 mV. Late current is measured as charge current elicited during the ramp with 50 nM ATXII.

Cav1.2 = target: T2, Cav1.2 (Homo sapiens, UniProt Q13936); assay: hCav1.2 (L-type) Calcium Channel Assay, Qube APC; conditions: Antagonist mode; HEK-Cav1.2; test compound
T2 construct: host or cells: HEK293
Description: as §1, §2, §3, §4

Nav1.5 Late Current = target: T3, Nav1.5 Late Current (Homo sapiens, UniProt Q14524); assay: hNav1.5 Late Current Sodium Channel Assay, Qube APC; conditions: Antagonist mode; HEK-Nav1.5 (Late), 50 nM ATXII; test compound
T3 construct: host or cells: HEK-293
Description: (§5) Electrophysiological assays were conducted to profile three compounds ((R)-methylone, (S)-methylone, or racemic methylone) for activities on the ion channel targets specified below using the Qube electrophysiological platform. Where presented, IC50 values were determined by a non-linear, least squares regression analysis. Reference standards were run as an integral part of each assay to ensure the validity of the results obtained.
as §3
Methods employed in this study have been developed and validated with reliability and reproducibility by Eurofins. Assays were performed under conditions below. [0217] hNavL.5 Sodium Channel Assay—Qube APC Onset and steady state block of peak Nay1.5 current is measured using a pulse pattern, repeated every 5 sec, consisting of a hyperpolarizing pulse to −120 mV for a 200 ms duration, depolarization to −15 mV amplitude for a 40 ms duration, followed by step to 40 mV for 200 ms and finally a 100 ms ramp (1.2 V/s) to a holding potential of −80 mV. Peak current is measured during the step to −15 mV. […] Onset and steady state block of hKv4.3 current is measured using a pulse pattern from −80 mV to 40 mV amplitude for a 110 ms duration, and finally a 100 ms ramp (1.2 V/s) to −80 mV. […] [0220] hNav1.5 Late Current Sodium Channel Assay—Qube APC Onset and steady state block of Late Nay1.5 current is measured using a pulse pattern, repeated every 5 sec, consisting of a hyperpolarizing pulse to −120 mV for a 200 ms duration, depolarization to −15 mV amplitude for a 40 ms duration, followed by step to 40 mV for 200 ms and finally a 100 ms ramp (1.2 V/s) to a holding potential of −80 mV. Late current is measured as charge current elicited during the ramp with 50 nM ATXII.

KCNQ1/mink = target: T4, KCNQ1/mink (Homo sapiens, UniProt P51787); assay: hKCNQ1/hminK Potassium Channel Assay, Qube APC; conditions: Antagonist mode; CHO-KCNQ1/minK; test compound
T4 construct: host or cells: CHO
Description: as §5, §3
(§6) hKCNQ1/hminK Potassium Channel Assay—Qube APC After whole cell configuration is achieved, the cells are held at −80 mV. KCNQ1/minK currents are evoked by a 1000 ms pulse from −80 mV to 60 mV followed by a ramp from 60 mV to −80 mV over 115 ms with the outward peak currents measured upon depolarization of the cell membrane. This paradigm is delivered once every 15s to monitor the current amplitude. [0223] hKir2.1 Potassium Channel Assay—Qube APC After whole cell configuration is achieved, the cells are held at −30 mV. Kir2.1 currents are evoked by a single 500 ms pulse to -120 mV before returning to the holding potential of −30 mV. This paradigm is delivered once every 20s to monitor the current amplitude.

Kir2.1 = target: T5, Kir2.1 (Homo sapiens, UniProt P63252); conditions: Antagonist mode; HEK-Kir2.1; test compound
T5 construct: host or cells: HEK
T5 sequence (P63252 1-427): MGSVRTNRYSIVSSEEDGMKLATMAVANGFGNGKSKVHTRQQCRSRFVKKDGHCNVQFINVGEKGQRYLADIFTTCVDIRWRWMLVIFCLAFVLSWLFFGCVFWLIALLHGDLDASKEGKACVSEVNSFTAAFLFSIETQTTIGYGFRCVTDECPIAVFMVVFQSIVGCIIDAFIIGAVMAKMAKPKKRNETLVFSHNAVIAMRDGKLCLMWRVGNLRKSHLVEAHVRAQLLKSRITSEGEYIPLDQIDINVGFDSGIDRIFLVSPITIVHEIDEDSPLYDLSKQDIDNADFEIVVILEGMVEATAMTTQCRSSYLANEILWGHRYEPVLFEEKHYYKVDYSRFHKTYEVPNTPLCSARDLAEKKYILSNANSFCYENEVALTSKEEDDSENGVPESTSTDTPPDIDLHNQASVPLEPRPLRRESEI
Description: as §5, §3, §6

T3 sequence (Q14524 whole entry): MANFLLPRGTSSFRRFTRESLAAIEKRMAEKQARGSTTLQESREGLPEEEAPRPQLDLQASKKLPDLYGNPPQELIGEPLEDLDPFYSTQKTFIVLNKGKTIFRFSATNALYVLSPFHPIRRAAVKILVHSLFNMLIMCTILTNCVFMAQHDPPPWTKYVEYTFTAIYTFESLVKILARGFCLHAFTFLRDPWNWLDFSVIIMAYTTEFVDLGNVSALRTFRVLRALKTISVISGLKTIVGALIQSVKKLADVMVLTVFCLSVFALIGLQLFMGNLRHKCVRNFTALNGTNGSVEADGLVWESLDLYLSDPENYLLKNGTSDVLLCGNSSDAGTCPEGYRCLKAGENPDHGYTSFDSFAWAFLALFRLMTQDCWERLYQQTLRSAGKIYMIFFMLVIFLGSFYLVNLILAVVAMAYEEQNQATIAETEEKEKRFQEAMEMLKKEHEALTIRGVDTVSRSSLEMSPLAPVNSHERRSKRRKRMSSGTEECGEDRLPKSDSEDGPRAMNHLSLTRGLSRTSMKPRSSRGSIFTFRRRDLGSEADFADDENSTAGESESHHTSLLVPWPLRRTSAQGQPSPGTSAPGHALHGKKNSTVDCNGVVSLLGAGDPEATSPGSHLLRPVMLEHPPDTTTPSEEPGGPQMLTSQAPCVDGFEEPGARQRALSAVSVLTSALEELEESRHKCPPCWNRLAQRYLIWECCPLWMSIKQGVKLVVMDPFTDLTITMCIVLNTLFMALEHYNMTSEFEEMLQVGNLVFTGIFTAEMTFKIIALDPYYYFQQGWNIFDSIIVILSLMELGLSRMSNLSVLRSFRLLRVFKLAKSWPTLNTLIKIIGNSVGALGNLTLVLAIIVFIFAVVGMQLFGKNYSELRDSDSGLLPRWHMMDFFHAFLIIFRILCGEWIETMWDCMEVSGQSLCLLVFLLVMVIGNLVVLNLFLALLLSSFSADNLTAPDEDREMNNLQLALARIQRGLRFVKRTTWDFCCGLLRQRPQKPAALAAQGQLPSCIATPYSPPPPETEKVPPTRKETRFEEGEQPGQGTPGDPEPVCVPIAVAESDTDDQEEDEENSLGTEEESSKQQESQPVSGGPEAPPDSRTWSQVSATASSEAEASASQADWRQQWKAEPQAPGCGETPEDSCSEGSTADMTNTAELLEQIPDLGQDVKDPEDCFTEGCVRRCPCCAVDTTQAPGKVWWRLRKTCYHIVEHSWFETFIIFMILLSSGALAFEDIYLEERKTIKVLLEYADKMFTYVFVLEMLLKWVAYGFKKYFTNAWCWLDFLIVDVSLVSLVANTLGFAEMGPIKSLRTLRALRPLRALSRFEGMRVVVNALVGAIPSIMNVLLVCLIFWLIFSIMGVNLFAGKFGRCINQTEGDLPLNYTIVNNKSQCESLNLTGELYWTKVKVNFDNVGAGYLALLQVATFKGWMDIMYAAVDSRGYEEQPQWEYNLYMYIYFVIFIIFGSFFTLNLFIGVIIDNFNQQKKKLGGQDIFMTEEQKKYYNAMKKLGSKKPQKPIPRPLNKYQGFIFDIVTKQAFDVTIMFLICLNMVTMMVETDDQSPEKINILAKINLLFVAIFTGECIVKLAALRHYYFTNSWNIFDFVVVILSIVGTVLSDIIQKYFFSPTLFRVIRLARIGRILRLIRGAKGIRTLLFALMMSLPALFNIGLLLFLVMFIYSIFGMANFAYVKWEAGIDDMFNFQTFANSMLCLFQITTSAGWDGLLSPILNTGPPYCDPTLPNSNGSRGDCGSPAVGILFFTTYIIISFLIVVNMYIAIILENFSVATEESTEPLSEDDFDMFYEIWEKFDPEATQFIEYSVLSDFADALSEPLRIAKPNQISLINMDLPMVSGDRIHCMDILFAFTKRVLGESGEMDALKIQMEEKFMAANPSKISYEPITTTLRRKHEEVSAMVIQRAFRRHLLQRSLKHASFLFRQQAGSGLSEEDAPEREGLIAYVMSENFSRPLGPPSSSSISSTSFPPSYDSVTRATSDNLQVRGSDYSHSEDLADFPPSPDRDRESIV
T1 sequence (Q14524 whole entry): as above
T4 sequence (P51787 whole entry): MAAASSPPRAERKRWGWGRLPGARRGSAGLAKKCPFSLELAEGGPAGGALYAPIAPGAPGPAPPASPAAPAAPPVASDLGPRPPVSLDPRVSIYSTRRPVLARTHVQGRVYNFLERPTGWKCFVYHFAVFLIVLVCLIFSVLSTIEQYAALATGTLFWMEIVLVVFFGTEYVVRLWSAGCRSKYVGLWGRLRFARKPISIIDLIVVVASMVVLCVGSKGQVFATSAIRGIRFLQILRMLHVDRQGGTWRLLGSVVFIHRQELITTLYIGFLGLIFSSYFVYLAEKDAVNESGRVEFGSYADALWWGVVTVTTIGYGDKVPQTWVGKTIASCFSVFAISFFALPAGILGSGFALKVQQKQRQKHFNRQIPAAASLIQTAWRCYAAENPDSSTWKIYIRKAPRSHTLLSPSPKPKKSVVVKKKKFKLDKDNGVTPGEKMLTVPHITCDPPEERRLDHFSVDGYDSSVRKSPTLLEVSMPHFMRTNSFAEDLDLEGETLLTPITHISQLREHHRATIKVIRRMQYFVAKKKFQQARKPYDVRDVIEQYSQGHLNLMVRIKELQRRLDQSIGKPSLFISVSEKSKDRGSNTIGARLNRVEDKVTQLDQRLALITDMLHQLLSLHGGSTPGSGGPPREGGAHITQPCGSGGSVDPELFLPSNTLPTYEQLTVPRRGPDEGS

Compound | Estimated IC50 (Nav1.5) | Estimated IC50 (Cav1.2) | Estimated IC50 (Nav1.5 Late Current) | Estimated IC50 (KCNQ1/mink) | Estimated IC50 (Kir2.1)
CN[C@H](C)C(=O)c1ccc2c(c1)OCO2 [(R)-methylone] | N/C (N/C indicates observed mean inhibition was <25%) | N/C (N/C indicates observed mean inhibition was <25%) | N/C (N/C indicates observed mean inhibition was <25%) | N/C (N/C indicates observed mean inhibition was <25%) | N/C (N/C indicates observed mean inhibition was <25%)
CN[C@@H](C)C(=O)c1ccc2c(c1)OCO2 [(S)-methylone] | N/C (N/C indicates observed mean inhibition was <25%) | N/C (N/C indicates observed mean inhibition was <25%) | N/C (N/C indicates observed mean inhibition was <25%) | N/C (N/C indicates observed mean inhibition was <25%) | N/C (N/C indicates observed mean inhibition was <25%)
CNC(C)C(=O)c1ccc2c(c1)OCO2 (stereo not drawn) [Methylone HCl, methylone HCl] | N/C (N/C indicates observed mean inhibition was <25%) | N/C (N/C indicates observed mean inhibition was <25%) | N/C (N/C indicates observed mean inhibition was <25%) | N/C (N/C indicates observed mean inhibition was <25%) | N/C (N/C indicates observed mean inhibition was <25%)

Reference: patent US20240374558A1, “PREPARATION OF PHENE[…] […] STEREOISOMERS THEREOF AND PRECURSORS THEREOF” (priority 2022, published 2024)
